Consider 10 compounds from patent publication US12054660B2, “Compound, composition, cured substance, optically anisotropic body, optical element, and light guide element” (FUJIFILM Corporation, priority 2021, dated 2024).

Holding throughout (assay type): physicochemical
Series [1] is described as follows: Evaluation of liquid crystallinity (hot stage, polarization microscope). Also noted: key: A case of having liquid crystallinity was evaluated as A; a case of having no liquid crystallinity was evaluated as B. The settings on record: heated on a hot stage. An excerpt:
As a specific observation method, optical anisotropy and fluidity derived from the liquid crystal phase can be checked by carrying out an observation under a polarization microscope while heating or lowering the temperature of the compound with a hot stage or the like.
The respective compounds of Examples and Comparative Examples (the compounds A-1, A-3 to A-20, and the compounds RA-1 and RA-2) were heated on a hot stage and observed with a polarization microscope, and the phase transition temperature was measured to evaluate the presence or absence of liquid crystallinity. A case of having liquid crystallinity was evaluated as A, and a case of having no liquid crystallinity was evaluated as B. The results are shown in Table 1.

Series [2] in a line: Measurement of Δn (refractive index anisotropy), wedge-shaped liquid crystal cell. As to conditions: 550 nm, 30° C. or lower limit temperature of nematic phase+0 to 10° C.; some extrapolated from 1/2 mixture with L-1-1. The procedure: The Δn of each of the compounds of Examples and Comparative Examples (the compounds A-1, A-3 to A-20, and the compounds RA-1 and RA-2), which are the compounds to be measured, was measured by a method using a wedge-shaped liquid crystal cell described on page 202 in the Liquid crystal handbook (edited by the liquid crystal handbook editorial board, published by Maruzen Co., Ltd., 2000). An was defined as a measured value at a wavelength of 550 nm at 30° C. or the lower limit temperature of the nematic phase+0° C. to 10° C. In a case of a compound which is liable to crystallize or a compound having no liquid crystallinity, evaluation was carried out using a mixture thereof with the other liquid crystal compound, and Δn was estimated from the extrapolated value of the measured value thereof. The following L-1-1 was used as the other liquid crystal compound. As the above mixture, a mixture obtained by mixing at a ratio of the compound to be measured/the L-1-1=1/2 (in terms of mass ratio) was used.
A case where Δn was 0.35 or more was evaluated as A, a case where Δn was 0.32 or more and less than 0.35 was evaluated as B, a case where Δn was 0.30 or more and less than 0.32 was evaluated as C, and a case where Δn was less than 0.30 was evaluated as D. The results are shown in Table 1.

Series [3] can be described thus: Evaluation of light resistance of optically anisotropic layer. The settings on record: rate of change in Re of layer (25 parts compound/75 parts L-1) after xenon irradiation 50 hours, 63° C., 50% RH, oxygen-blocking. The procedure: (§1) As shown below, the durability of the optically anisotropic layer produced using the composition containing each of the compounds A-1 and A-3 to A-20, and the compounds RA-1 and RA-2 was evaluated.
(§2) A coating composition having the following composition was prepared and applied by spin coating onto a rubbing-treated glass attached with an alignment film.
(§3) The polymerizable liquid crystal compound L-1 is a mixture obtained by mixing at a ratio of the following L-1-1/L-1-2/L-1-3=84/14/2 (in terms of mass ratio).
The produced optically anisotropic layers for light resistance/durability tests were irradiated with light using a Super Xenon Weather Meter SX75 manufactured by Suga Test Instruments Co., Ltd. Using KU-1000100 manufactured by King Seisakusho Co., Ltd. as an ultraviolet ray cut filter, irradiation with 5 million 1× of light was carried out for 50 hours under the oxygen-blocking conditions to carry out a light resistance test. The temperature of the specimen to be tested (the temperature inside the test device) was set to 63° C. The relative humidity in the test device was 50% RH.
The Re of the optically anisotropic layer before and after the light resistance test was measured, the light resistance in a case where the rate of change in Re described below was less than 10% was evaluated as A, and the light resistance in a case where the rate of change in Re was 10% or more was evaluated as B. The smaller the rate of change in Re, the more excellent the light resistance.
(§4) Re is an in-plane retardation. Rate of change in Re (%)=[100×{|(Re after test)−(Re before test)|}/(Re before test)]
(§5) Re was measured with Axoscan manufactured by Axometrics, Inc. at a wavelength of 550 nm, and the measurement temperature was set to room temperature.

Series [4] can be described thus: Evaluation of durability (moisture-heat resistance test) of optically anisotropic layer. As to conditions: rate of change in Re of layer (25 parts compound/75 parts L-1) after 136 hours at 100° C., 95% RH. As for the experimental part: as §1, §2, §3, §4, §5
The produced optically anisotropic layer was allowed to be left for 136 hours at 100° C. and a relative humidity of 95% RH, whereby a moisture-heat resistance test was carried out. The rate of change in Re before and after the durability test was evaluated, the durability in a case where the rate of change in Re was less than 10% was evaluated as A, and the durability in a case where the rate of change in Re was 10% or more was evaluated as B. The smaller the rate of change in Re, the more excellent the durability.

The nature of series [5]: Evaluation of solubility in methyl ethyl ketone. As to conditions: precipitation concentration in methyl ethyl ketone at room temperature (25° C.). As for the experimental part:
The solubility of each of the compounds of Examples and Comparative Examples (the compounds A-1, A-3 to A-20, and the compounds RA-1 and RA-2) in methyl ethyl ketone was evaluated. A solution in which the compound was ultrasonically dissolved or dissolved by heating was produced.

As for `CC(=O)OCCSc1ccc(C#Cc2ccc(CSc3ccc(C#Cc4ccc(CCOC(C)=O)cc4)cc3)cc2C)cc1` [Compound A-1], the Liquid crystallinity entry in series [1] is reported as “B”. Moreover, the Δn entry in series [2] is given as “A (A case where Δn was 0.35 or more was evaluated as A)”. The Light resistance entry in series [3] is recorded as “A (the light resistance in a case where the rate of change in Re described below was less than 10% was evaluated as A)”. Besides, in series [4], the Durability entry was “B (the durability in a case where the rate of change in Re was 10% or more was evaluated as B)”. In series [5], the Solubility entry is reported as “A (the solubility in a case where the precipitation concentration was 10% by mass or more was evaluated as A)”.

Take `C=CC(=O)OCCSc1ccc(C#Cc2ccc(COc3ccc(C#Cc4ccc(SCCOC(=O)C=C)cc4)cc3C(=O)OC)cc2)cc1` [Compound A-3]: the Liquid crystallinity entry in series [1] was “A”. The Δn entry in series [2] is listed as “A (A case where Δn was 0.35 or more was evaluated as A)”. The Light resistance entry in series [3] was “A (the light resistance in a case where the rate of change in Re described below was less than 10% was evaluated as A)”. Moreover, in series [4], the Durability result is on record as “A (the durability in a case where the rate of change in Re was less than 10% was evaluated as A)”. Also, the Solubility entry in series [5] was “A (the solubility in a case where the precipitation concentration was 10% by mass or more was evaluated as A)”.

Consider `C=CC(=O)OCCSc1ccc(C#Cc2ccc(C(=O)Oc3ccc(C#Cc4ccc(SCCOC(=O)C=C)cc4)cc3C(=O)OC)cc2)cc1` [Compound A-4], for which the Liquid crystallinity result in series [1] is on record as “A”. Also, the Δn entry in series [2] is on record as “A (A case where Δn was 0.35 or more was evaluated as A)”. Moreover, the Light resistance entry in series [3] is reported as “B (the light resistance in a case where the rate of change in Re was 10% or more was evaluated as B)”. Further, the Durability entry in series [4] is “A (the durability in a case where the rate of change in Re was less than 10% was evaluated as A)”. The Solubility result in series [5] is “A (the solubility in a case where the precipitation concentration was 10% by mass or more was evaluated as A)”.

Take `C=CC(=O)OCCSc1ccc(C#Cc2ccc(SCc3ccc(C#Cc4ccc(SCCOC(=O)C=C)cc4)c(OC)c3)cc2)cc1` [Compound A-5]: in series [1], the Liquid crystallinity result is “B”. Further, the Δn result in series [2] was “A (A case where Δn was 0.35 or more was evaluated as A)”. Moreover, in series [3], the Light resistance result was “A (the light resistance in a case where the rate of change in Re described below was less than 10% was evaluated as A)”. The Durability result in series [4] is recorded as “A (the durability in a case where the rate of change in Re was less than 10% was evaluated as A)”. Further, the Solubility result in series [5] is “A (the solubility in a case where the precipitation concentration was 10% by mass or more was evaluated as A)”.

As to `C=CC(=O)OCCSc1ccc(C#Cc2ccc(COc3ccc(C#Cc4ccc(SCCOC(=O)C=C)cc4)cc3C)cc2)cc1` [Compound A-6], the Liquid crystallinity entry in series [1] was “A”. In series [2], the Δn result was “A (A case where Δn was 0.35 or more was evaluated as A)”. The Light resistance result in series [3] is recorded as “A (the light resistance in a case where the rate of change in Re described below was less than 10% was evaluated as A)”. In series [4], the Durability entry is “A (the durability in a case where the rate of change in Re was less than 10% was evaluated as A)”. Further, in series [5], the Solubility entry is recorded as “A (the solubility in a case where the precipitation concentration was 10% by mass or more was evaluated as A)”.

As for `CC(=O)OCCSc1ccc(C#Cc2ccc(COc3ccc(C#Cc4ccc(CCOC(C)=O)cc4)cc3)cc2C)cc1` [Compound A-13], the Liquid crystallinity result in series [1] was “A”. Also, the Δn entry in series [2] was “B (a case where Δn was 0.32 or more and less than 0.35 was evaluated as B)”. Further, in series [3], the Light resistance entry is “A (the light resistance in a case where the rate of change in Re described below was less than 10% was evaluated as A)”. The Durability result in series [4] was “B (the durability in a case where the rate of change in Re was 10% or more was evaluated as B)”. Moreover, the Solubility result in series [5] is given as “A (the solubility in a case where the precipitation concentration was 10% by mass or more was evaluated as A)”.

Consider `C=CC(=O)OCCSc1ccc(C#Cc2ccc(COc3ccc(OCc4ccc(C#Cc5ccc(SCCOC(=O)C=C)cc5)cc4)c(C(=O)OC)c3)cc2)cc1` [Compound A-14], for which the Liquid crystallinity entry in series [1] is reported as “A”. The Δn entry in series [2] is “A (A case where Δn was 0.35 or more was evaluated as A)”. The Light resistance result in series [3] is reported as “A (the light resistance in a case where the rate of change in Re described below was less than 10% was evaluated as A)”. Further, the Durability entry in series [4] is listed as “A (the durability in a case where the rate of change in Re was less than 10% was evaluated as A)”. In series [5], the Solubility result is “B (the solubility in a case where the precipitation concentration was less than 10% by mass was evaluated as B)”.

`CC(=O)OCCSc1ccc(C#Cc2ccc(OCc3ccc(C#Cc4ccc(COc5ccc(C#Cc6ccc(SCCOC(C)=O)cc6)cc5C)cc4)cc3)c(C)c2)cc1` [Compound A-15]: the Liquid crystallinity result in series [1] is on record as “A”. Moreover, in series [2], the Δn result is “A (A case where Δn was 0.35 or more was evaluated as A)”. For the same compound, the Light resistance result in series [3] is given as “A (the light resistance in a case where the rate of change in Re described below was less than 10% was evaluated as A)”. The Durability result in series [4] is “B (the durability in a case where the rate of change in Re was 10% or more was evaluated as B)”. The Solubility entry in series [5] is listed as “B (the solubility in a case where the precipitation concentration was less than 10% by mass was evaluated as B)”.

As for `C=CC(=O)OCCSc1ccc(C#Cc2ccc(OCc3ccc(C#Cc4ccc(SCCOC(=O)C=C)cc4)s3)c(C(=O)OC)c2)cc1` [Compound A-16], the Liquid crystallinity entry in series [1] is recorded as “A”. Also, the Δn result in series [2] is given as “A (A case where Δn was 0.35 or more was evaluated as A)”. Also, the Light resistance result in series [3] is listed as “B (the light resistance in a case where the rate of change in Re was 10% or more was evaluated as B)”. In series [4], the Durability entry is given as “A (the durability in a case where the rate of change in Re was less than 10% was evaluated as A)”. Besides, the Solubility entry in series [5] is given as “A (the solubility in a case where the precipitation concentration was 10% by mass or more was evaluated as A)”.

As for `C=CC(=O)OCCOc1ccc(C#Cc2ccc(SCCSc3ccc(C#Cc4ccc(OCCOC(=O)C=C)c(C)c4)cc3)cc2)cc1C` [Compound A-17], the Liquid crystallinity entry in series [1] is recorded as “B”. Besides, the Δn result in series [2] is “A (A case where Δn was 0.35 or more was evaluated as A)”. Besides, the Light resistance entry in series [3] was “A (the light resistance in a case where the rate of change in Re described below was less than 10% was evaluated as A)”. For the same compound, the Durability entry in series [4] is “A (the durability in a case where the rate of change in Re was less than 10% was evaluated as A)”. In addition, in series [5], the Solubility result was “A (the solubility in a case where the precipitation concentration was 10% by mass or more was evaluated as A)”.
